What was measured:
Capan-1 cells = assay: SRB antiproliferative assay, Capan-1; assay type: cell-based, human; conditions: for Cell growth percentage: Capan-1, 10 μM, 72 h exposure; for IC50: Homo sapiens, Capan-1, 72 h, mean ± SEM, read-out: Half-maximal inhibitory concentration (IC50)
Experimental: (§1) The cytotoxic activity of the nortopsentin derivatives 3b, 3e, 4c, 5b, and 6c on pancreatic cancer cells (BxPC-3, Panc-1, Suit-2, Capan-1, PaTu-T, primary PDAC-3 and resistant Panc-1-GR cells) was determined by the sulforhodamine B (SRB) chemosensitivity assay, as described previously. Cells were plated in 96-well flat-bottom plates at final concentrations ranging from 3000–5000 cells/well in 100 µL of medium. After a 24 h pre-incubation period, cells were treated with the compounds at nine screening concentrations (from 0.1 μM to 40 μM) in triplicate and incubated at 37 °C for 72 h. After the treatment, cells were fixed with 25 µL of cold 50% trichloroacetic acid (TCA) for each well and incubated at 4 °C for 1 h. Afterwards, plates were washed five times with demi-water and air-dried overnight. Then, the plates were stained with 50 µL of 0.4% SRB solution in 1% acetic acid for 15 min. The excess stain was rinsed off by placing the plates under running 1% acetic acid and allowed to dry at room temperature overnight. SRB staining was rinsed with 150 µL tris(hydroxymethyl)aminomethane solution pH = 8.8 (TRIS-base), and the optical density (OD) was read at 492 nm. Each assay was performed in triplicate and assays were repeated at least three times. The comparison of the average optical density of the growth in control wells with that in the sample wells allowed the estimation of the percentage of cell growth, using the following equation: % Cell Growth = (mean ODcompound − mean ODday zero plate)/(mean ODcells − mean ODday zero plate) × 100
(§2) The results obtained were adjusted by the day zero plate (wells containing cells growing for only 24 h) and normalized by the control cells (wells with untreated cells) to obtain the rate of viable cells.

BxPC-3 cells [1] = assay: SRB antiproliferative assay, BxPC-3; assay type: cell-based, human; conditions: for Cell growth percentage: BxPC-3, 10 μM, 72 h exposure; for IC50: Homo sapiens, BxPC-3, 72 h, mean ± SEM, read-out: Half-maximal inhibitory concentration (IC50)
Experimental: as §1, §2

BxPC-3 cells [2] = assay: Scratch wound-healing assay, BxPC-3; assay type: cell-based, human; conditions: BxPC-3, 8 h, 4 × IC50, untreated = 100% wound closure
Experimental: Cell migration was assessed using a wound-healing assay, as described previously. A total of 5 × 10^4 cells/well were seeded in a 96-well plate, to form a confluent monolayer. Scratches were created in confluent cell layers using the sterile scratch tool. The detached cells following scratch induction were removed and new medium was added to the wells. Cells were next treated with compounds 3b and 5b at a concentration of 4 × IC50. Cells growing in a complete medium were maintained at 37 °C with a supply of 5% CO2/95% air atmosphere and 100% relative humidity. The progress of wound closure was observed and documented at various time points (0th, 4th, 8th, 20th, and 24th h) using phase-contrast microscopy. Pictures of the plates were taken using the Universal Grab 6.3 software (DCILabs) from a computer connected to a Leica microscope with a JAI TMC-1327 camera.
The percentage of migration was calculated using the following equation:%Migration = (Width of the wound at T = 0 − Width of the wound at T = X)/(Width of the wound at T = 0) × 100

Suit-2 cells = assay: SRB antiproliferative assay, Suit-2; assay type: cell-based, human; conditions: for IC50: Homo sapiens, Suit-2, 72 h, mean ± SEM, read-out: Half-maximal inhibitory concentration (IC50); for Cell growth percentage: Suit-2, 10 μM, 72 h exposure
Experimental: as §1, §2

Panc-1 cells = assay: SRB antiproliferative assay, Panc-1; assay type: cell-based, human; conditions: for IC50: Homo sapiens, Panc-1, 72 h, mean ± SEM, read-out: Half-maximal inhibitory concentration (IC50); for Cell growth percentage: Panc-1, 10 μM, 72 h exposure
Experimental: as §1, §2

PDAC-3 cells = assay: SRB antiproliferative assay, primary culture PDAC-3; assay type: cell-based, human; conditions: for IC50: Homo sapiens, PDAC-3, 72 h, mean ± SEM, read-out: Half-maximal inhibitory concentration (IC50); for Cell growth percentage: PDAC-3, 10 μM, 72 h exposure
Experimental: as §1, §2

Panc-1-GR cells = assay: SRB antiproliferative assay, gemcitabine-resistant Panc-1-GR; assay type: cell-based, human; conditions: for Cell growth percentage: 10 μM, 72 h exposure; for IC50: Homo sapiens, 72 h, mean ± SEM, read-out: Half-maximal inhibitory concentration (IC50)
Experimental: as §1, §2

PDAC cells = assay: SRB antiproliferative assay, whole PDAC panel; assay type: cell-based; conditions: Homo sapiens; seven PDAC models, 72 h; read-out: IC50 values, range over the PDAC cell panel
Experimental: as §1, with “The comparison of the average optical density of the growth in control wells with that in the sample wells allowed the estimation of the percentage of cell growth, using the following equation: % Cell Growth = (mean ODcompound − mean ODday zero plate)/(mean ODcells − mean ODday zero plate) × 100” left out

PaTu-T cells = assay: SRB antiproliferative assay, PaTu-T; assay type: cell-based, human; conditions: for Cell growth percentage: 10 μM, 72 h exposure; for IC50: Homo sapiens, 72 h, mean ± SEM, read-out: Half-maximal inhibitory concentration (IC50)
Experimental: as §1, §2

Structure (SMILES): Cn1cc(-c2nnc(-c3c[nH]c4ncccc34)s2)c2ccccc21 [5a, 3-[5-(1-methyl-1H-indol-3-yl)-1,3,4-thiadiazol-2-yl]-7-azaindole]
- melting point: 246 °C

Structure (SMILES): c1ccc(-c2nnc(-c3c[nH]c4ncccc34)o2)cc1 [4a, 3-(5-phenyl-1,3,4-oxadiazol-2-yl)-7-azaindole]
- melting point: 272 °C

Structure (SMILES): Cn1cc(-c2nnc(-c3cn(C)c4ncc(Br)cc34)o2)c2cc(F)ccc21 [3g, 5-bromo-3-[5-(5-fluoro-1-methyl-1H-indol-3-yl)-1,3,4-oxadiazol-2-yl]-1-methyl-7-azaindole]
- melting point: 310 °C

Structure (SMILES): Cn1cc(-c2nnc(-c3cn(C)c4ncccc34)o2)c2cc(F)ccc21 [3c, 3-[5-(5-fluoro-1-methyl-1H-indol-3-yl)-1,3,4-oxadiazol-2-yl]-1-methyl-7-azaindole]
- melting point: 268 °C

Structure (SMILES): Cn1cc(-c2nnc(-c3cn(C)c4ncccc34)s2)c2ccccc21 [5b, 1-methyl-3-[5-(1-methyl-1H-indol-3-yl)-1,3,4-thiadiazol-2-yl]-7-azaindole]
- Cell growth percentage (Capan-1 cells): 30.86%
- IC50 (Capan-1 cells): 3.3 ± 0.61 µM
- Cell growth percentage (BxPC-3 cells [1]): 32.88%
- IC50 (BxPC-3 cells [1]): 2.7 ± 0.68 µM
- percentage of cells migrating (BxPC-3 cells [2]): 66%
- IC50 (Suit-2 cells): 1.9 ± 0.27 µM
- Cell growth percentage (Suit-2 cells): 19.46%
- IC50 (Panc-1 cells): 3.5 ± 0.01 µM
- Cell growth percentage (Panc-1 cells): 15.68%
- IC50 (PDAC-3 cells): 10.6 ± 0.04 µM
- Cell growth percentage (PDAC-3 cells): 55.90%
- Cell growth percentage (Panc-1-GR cells): 40.65%
- IC50 (Panc-1-GR cells): 9.8 ± 0.05 µM
- melting point: 244 °C
- IC50 (PDAC cells): 1.9 to 10.6 µM
- Cell growth percentage (PaTu-T cells): 27.73%
- IC50 (PaTu-T cells): 3.4 ± 0.06 µM

Structure (SMILES): c1ccc(-c2nnc(-c3c[nH]c4ncccc34)s2)cc1 [6a, 3-(5-phenyl-1,3,4-thiadiazol-2-yl)-7-azaindole]
- melting point: 249 °C

Structure (SMILES): Cn1cc(-c2nnc(-c3cn(C)c4ncc(Br)cc34)s2)c2cc(Br)ccc21 [5g, 5-bromo-3-[5-(5-bromo-1-methyl-1H-indol-3-yl)-1,3,4-thiadiazol-2-yl]-1-methyl-7-azaindole]
- melting point: 275 °C

Structure (SMILES): Cn1cc(-c2nnc(-c3cn(C)c4ncc(Br)cc34)s2)c2cc(F)ccc21 [5h, 5-bromo-3-[5-(5-fluoro-1-methyl-1H-indol-3-yl)-1,3,4-thiadiazol-2-yl]-1-methyl-7-azaindole]
- melting point: 290 °C

Structure (SMILES): Cn1cc(-c2nnc(-c3cn(C)c4ncc(Br)cc34)s2)c2ccccc21 [5f, 5-bromo-1-methyl-3-[5-(1-methyl-1H-indol-3-yl)-1,3,4-thiadiazol-2-yl]-7-azaindole]
- melting point: 233 °C

Structure (SMILES): Brc1cnc2[nH]cc(-c3nnc(-c4ccccc4)o3)c2c1 [4c, 5-bromo-3-(5-phenyl-1,3,4-oxadiazol-2-yl)-7-azaindole]
- Cell growth percentage (Capan-1 cells): 75.17%
- IC50 (Capan-1 cells): 10.8 ± 0.67 µM
- Cell growth percentage (BxPC-3 cells [1]): 21.13%
- IC50 (BxPC-3 cells [1]): 3.3 ± 2.4 µM
- Cell growth percentage (Suit-2 cells): 60.18%
- IC50 (Panc-1 cells): 13.4 ± 3.2 µM
- Cell growth percentage (Panc-1 cells): 74.33%
- Cell growth percentage (PDAC-3 cells): 96.60%
- Cell growth percentage (Panc-1-GR cells): 98.62%
- IC50 (Panc-1-GR cells): 10.8 ± 1.4 µM
- melting point: 275 °C
- Cell growth percentage (PaTu-T cells): 31.22%
- IC50 (PaTu-T cells): 9.7 ± 0.17 µM

Structure (SMILES): Cn1cc(-c2nnc(-c3cn(C)c4ncc(Br)cc34)o2)c2cc(Br)ccc21 [3f, 5-bromo-3-[5-(5-bromo-1-methyl-1H-indol-3-yl)-1,3,4-oxadiazol-2-yl]-1-methyl-7-azaindole]
- melting point: 275 °C

Structure (SMILES): Cn1cc(-c2nnc(-c3ccccc3)s2)c2cc(Br)cnc21 [6d, 5-bromo-1-methyl-3-(5-phenyl-1,3,4-thiadiazol-2-yl)-7-azaindole]
- melting point: 188 °C

Structure (SMILES): COc1ccc2c(c1)c(-c1nnc(-c3cn(C)c4ncccc34)s1)cn2C [5e, 3-[5-(5-methoxy-1-methyl-1H-indol-3-yl)-1,3,4-thiadiazol-2-yl]-1-methyl-7-azaindole]
- melting point: 200 °C

Structure (SMILES): Brc1cnc2[nH]cc(-c3nnc(-c4ccccc4)s3)c2c1 [6c, 5-bromo-3-(5-phenyl-1,3,4-thiadiazol-2-yl)-7-azaindole]
- Cell growth percentage (Capan-1 cells): 76.76%
- IC50 (Capan-1 cells): 12.6 ± 1.3 µM
- Cell growth percentage (BxPC-3 cells [1]): 54.59%
- IC50 (Suit-2 cells): 4.1 ± 0.9 µM
- Cell growth percentage (Suit-2 cells): 29.80%
- IC50 (Panc-1 cells): 11.5 ± 1.2 µM
- Cell growth percentage (Panc-1 cells): 83.68%
- Cell growth percentage (PDAC-3 cells): 87.84%
- melting point: 308 °C
- Cell growth percentage (PaTu-T cells): 56.09%
- IC50 (PaTu-T cells): 3.8 ± 1.8 µM

Structure (SMILES): Cn1cc(-c2nnc(-c3cn(C)c4ncc(Br)cc34)o2)c2ccccc21 [3e, 5-bromo-1-methyl-3-[5-(1-methyl-1H-indol-3-yl)-1,3,4-oxadiazol-2-yl]-7-azaindole]
- Cell growth percentage (Capan-1 cells): 59.84%
- Cell growth percentage (BxPC-3 cells [1]): 58.64%
- IC50 (Suit-2 cells): 9.4 ± 4.3 µM
- Cell growth percentage (Suit-2 cells): 54.94%
- Cell growth percentage (Panc-1 cells): 61.96%
- IC50 (PDAC-3 cells): 23 ± 0.06 µM
- melting point: 244 °C
- Cell growth percentage (PaTu-T cells): 72.33%

Structure (SMILES): Cn1cc(-c2nnc(-c3ccccc3)o2)c2cc(Br)cnc21 [4d, 5-bromo-1-methyl-3-(5-phenyl-1,3,4-oxadiazol-2-yl)-7-azaindole]
- melting point: 236 °C

Structure (SMILES): Cn1cc(-c2nnc(-c3cn(C)c4ncccc34)o2)c2cc(Br)ccc21 [3d, 3-[5-(5-bromo-1-methyl-1H-indol-3-yl)-1,3,4-oxadiazol-2-yl]-1-methyl-7-azaindole]
- melting point: 277 °C

Structure (SMILES): Cn1cc(-c2nnc(-c3cn(C)c4ncccc34)s2)c2cc(F)ccc21 [5d, 3-[5-(5-fluoro-1-methyl-1H-indol-3-yl)-1,3,4-thiadiazol-2-yl]-1-methyl-7-azaindole]
- melting point: 240 °C

Structure (SMILES): Cn1cc(-c2nnc(-c3ccccc3)s2)c2cccnc21 [6b, 1-methyl-3-(5-phenyl-1,3,4-thiadiazol-2-yl)-7-azaindole]
- melting point: 191 °C

Structure (SMILES): Cn1cc(-c2nnc(-c3cn(C)c4ncccc34)s2)c2cc(Br)ccc21 [5c, 3-[5-(5-bromo-1-methyl-1H-indol-3-yl)-1,3,4-thiadiazol-2-yl]-1-methyl-7-azaindole]
- melting point: 292 °C

Structure (SMILES): Cn1cc(-c2nnc(-c3c[nH]c4ncccc34)o2)c2ccccc21 [3a, 3-[5-(1-methyl-1H-indol-3-yl)-1,3,4-oxadiazol-2-yl]-7-azaindole]
- melting point: 302 °C

Structure (SMILES): Cn1cc(-c2nnc(-c3ccccc3)o2)c2cccnc21 [4b, 1-methyl-3-(5-phenyl-1,3,4-oxadiazol-2-yl)-7-azaindole]
- melting point: 201 °C

From PMC10381170, “1,3,4-Oxadiazole and 1,3,4-Thiadiazole Nortopsentin Derivatives against Pancreatic Ductal Adenocarcinoma: Synthesis, Cytotoxic Activity, and Inhibition of CDK1” (Marine Drugs, 2023)
